ChEMBL document CHEMBL5131546, “Discovery of 1H-Pyrazole Biaryl Sulfonamides as Novel G2019S-LRRK2 Kinase Inhibitors” (ACS Med Chem Lett, 2022)

Tests used:
[1] = Cmax in CD-1 mouse at 0.5 mg/kg, iv by LC-MS/MS analysis; format: ADME, organism-based; set-up: dose 0.5 mg/kg, route iv; conditions: in vivo
[2] = Clearance in CD-1 mouse at 0.5 mg/kg, iv by LC-MS/MS analysis; format: ADME, organism-based; conditions: in vivo
in vitro [3] = conditions: human, Caco-2
[4] = Tmax in CD-1 mouse at 2 mg/kg, po by LC-MS/MS analysis; format: ADME, organism-based; conditions: in vivo
in vitro [5] = conditions: human, liver microsomes
[6] = AUCinf in CD-1 mouse at 2 mg/kg, po by LC-MS/MS analysis; format: ADME, organism-based; set-up: time infinity, dose 2 mg/kg, route po; conditions: in vivo
[7] = MRT in CD-1 mouse at 2 mg/kg, po by LC-MS/MS analysis; format: ADME, organism-based; conditions: in vivo
[8] = AUCinf in CD-1 mouse at 0.5 mg/kg, iv by LC-MS/MS analysis; format: ADME, organism-based; set-up: time infinity, dose 0.5 mg/kg, route iv; conditions: in vivo
in vitro [9] = conditions: mouse, liver microsomes
[10] = Half life in CD-1 mouse at 2 mg/kg, po by LC-MS/MS analysis; format: ADME, organism-based; conditions: in vivo
[11] = MRT in CD-1 mouse at 0.5 mg/kg, iv by LC-MS/MS analysis; format: ADME, organism-based; conditions: in vivo
[12] = Oral bioavailability in CD-1 mouse at 2 mg/kg by LC-MS/MS analysis; format: ADME, organism-based; conditions: in vivo
in vitro [13] = conditions: human, Caco-2; remark: listed apart in the source
[14] = Cmax in CD-1 mouse at 2 mg/kg, po by LC-MS/MS analysis; format: ADME, organism-based; set-up: dose 2 mg/kg, route po; conditions: in vivo
[15] = Half life in CD-1 mouse at 0.5 mg/kg, iv by LC-MS/MS analysis; format: ADME, organism-based; conditions: in vivo
[16] = Volume of distribution at steady state in CD-1 mouse at 0.5 mg/kg, iv by LC-MS/MS analysis; format: ADME, organism-based; conditions: in vivo, read-out: Vdss

Cmax [1]: 580 nM
clearance [2]: 33.5 mL/min/kg
Papp B→A at 2 h, 10 µM (in vitro [3]): 27 ×10⁻⁶ cm/s
Tmax [4]: 1 h
half-life at 40 min (in vitro [5]): 2.65 h
AUC(0-inf) [6]: 2.55 µM·h
MRT [7]: 3.01 h
AUC(0-inf) [8]: 0.58 µM·h
half-life at 40 min (in vitro [9]): 0.5 h
half-life [10]: 1.25 h
MRT [11]: 1.01 h
bioavailability [12]: 111%
Papp A→B at 2 h, 10 µM (in vitro [13]): 8.78 ×10⁻⁶ cm/s
Cmax [14]: 580 nM
half-life [15]: 0.8 h
Vd [16]: 2 L/kg
Compound: Cc1[nH]nc(-c2ccncc2)c1-c1ccc(-c2cccc(S(N)(=O)=O)c2)c(C2CC2)c1
